Laboratory results reported in patent US20230085307A1, “PYRIDAZINONE COMPOUND AND HERBICIDE” (NISSAN CHEMICAL CORPORATION, priority 2019, published 2023).

Experiments:
[1] = tested on: rice flat sedge; experiment: Test Example 3: herbicidal effect by foliage application, Wagner pot (Table 18, symbol E); assay type: in vivo, rice flat sedge (Cyperus iria); settings: 320 g/ha
Procedure, shortened: (§1)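 Plants were sown in alluvial soil held under 0.1–0.5 cm standing water and grown 14 days in a greenhouse at 25–30 °C. An emulsifiable formulation, water-diluted to the set dose, was then sprayed onto the foliage, and effects were scored three weeks later using previously defined criteria.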

[2] = tested on: barnyard grass; experiment: Test Example 3: herbicidal effect by foliage application, Wagner pot (Table 18, symbol H); assay type: in vivo, barnyard grass (Echinochloa crus-galli); settings: 320 g/ha
Procedure, shortened: as §1

[3] = tested on: oval-leafed pondweed; experiment: Test Example 2: herbicidal activity, application during weed generation under submerged conditions (Table 17, symbol C); assay type: in vivo, oval-leafed pondweed (Monochoria vaginalis); settings: AAH 320 g/ha; application during weed generation, submerged conditions
Procedure, shortened: (§2)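 Effect on each weed is rated three weeks post-treatment, using the same scoring criteria as the preceding test. Plants grow from mixed-sown seed in flooded alluvial soil (4 cm water) at 25° C. to 30° C., and are treated at one to two leaves with diluted emulsion dropped onto the water.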

[4] = tested on: blackgrass; experiment: Test Example 5: herbicidal effect by foliage application, plastic box (Table 20, symbol J); assay type: in vivo, blackgrass (Alopecurus myosuroides)
Procedure, shortened: (§3)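 Plants sown in sterilized diluvial soil and grown 14 days in a greenhouse at 25° C to 30° C, then sprayed on the foliage with the compound's emulsion diluted in water to a predetermined herbicide amount. Injury to weeds and crops scored three weeks after application on a visual rating scale.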

[5] = tested on: late watergrass; experiment: Test Example 1: herbicidal activity, application before weed generation under submerged conditions (Table 16, symbol A); assay type: in vivo, late watergrass (Echinochloa oryzicola); settings: for Herbicidal effect, A: late watergrass: amount of applied herbicide 320 g/ha
Procedure, shortened: (§4)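 Emulsion formulation, water-diluted to set dose, was put onto the flooded surface (4 cm depth, alluvial soil) the same day weeds were sown and 2.5-leaf rice transplanted. After 3 weeks at 25-30 °C under glass, each species was rated 0 (≤5% kill) to 5 (≥90% kill).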

[6] = tested on: green foxtail; experiment: Test Example 5: herbicidal effect by foliage application, plastic box (Table 20, symbol G); assay type: in vivo, green foxtail (Setaria viridis)
Procedure, shortened: as §3

[7] = tested on: windgrass; experiment: Test Example 5: herbicidal effect by foliage application, plastic box (Table 20, symbol L); assay type: in vivo, windgrass (Apera spica-venti)
Procedure, shortened: as §3

[8] = tested on: Chinese sprangletop; experiment: Test Example 3: herbicidal effect by foliage application, Wagner pot (Table 18, symbol D); assay type: in vivo, chinese sprangletop (Leptochloa chinensis); settings: 320 g/ha
Procedure, shortened: as §1

[9] = tested on: barnyard grass; experiment: Test Example 5: herbicidal effect by foliage application, plastic box (Table 20, symbol H); assay type: in vivo, barnyard grass (Echinochloa crus-galli)
Procedure, shortened: as §3

[10] = tested on: late watergrass; experiment: Test Example 2: herbicidal activity, application during weed generation under submerged conditions (Table 17, symbol A); assay type: in vivo, late watergrass (Echinochloa oryzicola); settings: AAH 320 g/ha; application during weed generation, submerged conditions
Procedure, shortened: as §2

[11] = tested on: velvetleaf; experiment: Test Example 5: herbicidal effect by foliage application, plastic box (Table 20, symbol M); assay type: in vivo, velvetleaf (Abutilon theophrasti)
Procedure, shortened: as §3

[12] = tested on: Japanese bulrush; experiment: Test Example 1: herbicidal activity, application before weed generation under submerged conditions (Table 16, symbol B); assay type: in vivo, Japanese bulrush (Schoenoplectus juncoides); settings: for Herbicidal effect, B: Japanese bulrush: amount of applied herbicide 320 g/ha
Procedure, shortened: as §4

[13] = tested on: oval-leafed pondweed; experiment: Test Example 1: herbicidal activity, application before weed generation under submerged conditions (Table 16, symbol C); assay type: in vivo, oval-leafed pondweed (Monochoria vaginalis); settings: for Herbicidal effect, C: oval-leafed pondweed: amount of applied herbicide 320 g/ha
Procedure, shortened: as §4

[14] = tested on: southern crabgrass; experiment: Test Example 5: herbicidal effect by foliage application, plastic box (Table 20, symbol F); assay type: in vivo, southern crabgrass (Digitaria ciliaris)
Procedure, shortened: as §3

[15] = tested on: lambsquarters; experiment: Test Example 5: herbicidal effect by foliage application, plastic box (Table 20, symbol O); assay type: in vivo, lambsquarters (Chenopodium album)
Procedure, shortened: as §3

[16] = tested on: Italian ryegrass; experiment: Test Example 5: herbicidal effect by foliage application, plastic box (Table 20, symbol K); assay type: in vivo, Italian ryegrass (Lolium multiflorum)
Procedure, shortened: as §3

[17] = tested on: wild oat; experiment: Test Example 5: herbicidal effect by foliage application, plastic box (Table 20, symbol I); assay type: in vivo, wild oat (Avena fatua)
Procedure, shortened: as §3

[18] = tested on: redroot pigweed; experiment: Test Example 5: herbicidal effect by foliage application, plastic box (Table 20, symbol N); assay type: in vivo, redroot pigweed (Amaranthus retroflexus)
Procedure, shortened: as §3

[19] = tested on: persian speedwell; experiment: Test Example 5: herbicidal effect by foliage application, plastic box (Table 20, symbol R); assay type: in vivo, Persian speedwell (Veronica persica)
Procedure, shortened: as §3

[20] = tested on: Japanese bulrush; experiment: Test Example 2: herbicidal activity, application during weed generation under submerged conditions (Table 17, symbol B); assay type: in vivo, Japanese bulrush (Schoenoplectus juncoides); settings: AAH 320 g/ha; application during weed generation, submerged conditions
Procedure, shortened: as §2

[21] = tested on: chickweed; experiment: Test Example 5: herbicidal effect by foliage application, plastic box (Table 20, symbol P); assay type: in vivo, common chickweed (Stellaria media)
Procedure, shortened: as §3

[22] = 320 g/ha, foliage application after 14-day growth, evaluated three weeks after application
[23] = amount of applied herbicide 320 g/ha, foliage application after 14-day growth, evaluated three weeks after application
[24] = foliage application, AAH 320 g/ha, three weeks after application

## COc1ccc2c(-c3c(OC(=O)C(C)c4ccccc4)c(C)nn(C)c3=O)c(-c3ccccc3OC)sc2c1 (stereo not drawn) [3-157]
[1]
  herbicidal effect on rice flat sedge (E): 3 (Herbicidal rate of 40% or more and less than 70%)
[2]
  herbicidal effect on barnyard grass (H): 5 (Herbicidal rate of 90% or more (almost completely withered))
[3]
  herbicidal effect rating, C: oval-leafed pondweed: 4 (Herbicidal rate of 70% or more and less than 90%)
[4]; [22]
  herbicidal effect on J: blackgrass (evaluation grade 0-5): 4 (Herbicidal rate of 70% or more and less than 90%)
[5]
  Herbicidal effect, A: late watergrass: 5 (Herbicidal rate of 90% or more (almost completely withered))
[6]; [22]
  herbicidal effect on G: green foxtail (evaluation grade 0-5): 4 (Herbicidal rate of 70% or more and less than 90%)
[7]; [22]
  herbicidal effect on L: windgrass (evaluation grade 0-5): 5 (Herbicidal rate of 90% or more (almost completely withered))
[8]
  herbicidal effect on Chinese sprangletop (D): 3 (Herbicidal rate of 40% or more and less than 70%)
[9]; [22]
  herbicidal effect on H: barnyard grass (evaluation grade 0-5): 5 (Herbicidal rate of 90% or more (almost completely withered))
[10]
  herbicidal effect rating, A: late watergrass: 4 (Herbicidal rate of 70% or more and less than 90%)
[11]; [22]
  herbicidal effect on M: velvetleaf (evaluation grade 0-5): 5 (Herbicidal rate of 90% or more (almost completely withered))
[12]
  Herbicidal effect, B: Japanese bulrush: 3 (Herbicidal rate of 40% or more and less than 70%)
[13]
  Herbicidal effect, C: oval-leafed pondweed: 3 (Herbicidal rate of 40% or more and less than 70%)
[14]; [22]
  herbicidal effect on F: southern crabgrass (evaluation grade 0-5): 4 (Herbicidal rate of 70% or more and less than 90%)
[15]; [22]
  herbicidal effect on O: lambsquarters (evaluation grade 0-5): 4 (Herbicidal rate of 70% or more and less than 90%)
[16]; [22]
  herbicidal effect on K: Italian ryegrass (evaluation grade 0-5): 3 (Herbicidal rate of 40% or more and less than 70%)
[17]; [22]
  herbicidal effect on I: wild oat (evaluation grade 0-5): 3 (Herbicidal rate of 40% or more and less than 70%)
[18]; [22]
  herbicidal effect on N: redroot pigweed (evaluation grade 0-5): 4 (Herbicidal rate of 70% or more and less than 90%)
[19]; [22]
  herbicidal effect on R: persian speedwell (evaluation grade 0-5): 4 (Herbicidal rate of 70% or more and less than 90%)
[20]
  herbicidal effect rating, B: Japanese bulrush: 3 (Herbicidal rate of 40% or more and less than 70%)
[21]; [22]
  herbicidal effect on P: chickweed (evaluation grade 0-5): 4 (Herbicidal rate of 70% or more and less than 90%)

## CCCC(=O)Oc1c(C)nn(C)c(=O)c1-c1c(-c2ccc(C#N)cc2)sc2cc(Cl)c(Cl)cc12 [5-050]
[1]
  herbicidal effect on rice flat sedge (E): 0 (Herbicidal rate of 5% or less (almost no effect))
[2]
  herbicidal effect on barnyard grass (H): 2 (Herbicidal rate of 20% or more and less than 40%)
[3]
  herbicidal effect rating, C: oval-leafed pondweed: 0 (Herbicidal rate of 5% or less (almost no effect))
[4]; [23]
  Herbicidal effect by foliage application, J: blackgrass: 0 (Herbicidal rate of 5% or less (almost no effect))
[5]
  Herbicidal effect, A: late watergrass: 3 (Herbicidal rate of 40% or more and less than 70%)
[6]; [23]
  Herbicidal effect by foliage application, G: green foxtail: 0 (Herbicidal rate of 5% or less (almost no effect))
[7]; [23]
  Herbicidal effect by foliage application, L: windgrass: 0 (Herbicidal rate of 5% or less (almost no effect))
[8]
  herbicidal effect on Chinese sprangletop (D): 4 (Herbicidal rate of 70% or more and less than 90%)
[9]; [23]
  Herbicidal effect by foliage application, H: barnyard grass: 0 (Herbicidal rate of 5% or less (almost no effect))
[10]
  herbicidal effect rating, A: late watergrass: 0 (Herbicidal rate of 5% or less (almost no effect))
[11]; [23]
  Herbicidal effect by foliage application, M: velvetleaf: 0 (Herbicidal rate of 5% or less (almost no effect))
[12]
  Herbicidal effect, B: Japanese bulrush: 0 (Herbicidal rate of 5% or less (almost no effect))
[13]
  Herbicidal effect, C: oval-leafed pondweed: 0 (Herbicidal rate of 5% or less (almost no effect))
[14]; [23]
  Herbicidal effect by foliage application, F: southern crabgrass: 0 (Herbicidal rate of 5% or less (almost no effect))
[15]; [23]
  Herbicidal effect by foliage application, O: lambsquarters: 0 (Herbicidal rate of 5% or less (almost no effect))
[16]; [23]
  Herbicidal effect by foliage application, K: Italian ryegrass: 0 (Herbicidal rate of 5% or less (almost no effect))
[17]; [23]
  Herbicidal effect by foliage application, I: wild oat: 0 (Herbicidal rate of 5% or less (almost no effect))
[18]; [23]
  Herbicidal effect by foliage application, N: redroot pigweed: 0 (Herbicidal rate of 5% or less (almost no effect))
[19]; [23]
  Herbicidal effect by foliage application, R: persian speedwell: 3 (Herbicidal rate of 40% or more and less than 70%)
[20]
  herbicidal effect rating, B: Japanese bulrush: 2 (Herbicidal rate of 20% or more and less than 40%)
[21]; [23]
  Herbicidal effect by foliage application, P: chickweed: 3 (Herbicidal rate of 40% or more and less than 70%)

## CCCC(=O)Oc1c(C)nn(C)c(=O)c1-c1c(-c2ccc([Si](C)(C)C)cc2)sc2ccccc12 [1-154]
[1]
  herbicidal effect on E (rice flat sedge), rating 0-5: 2 (Herbicidal rate of 20% or more and less than 40%)
[2]
  herbicidal effect on H (barnyard grass), rating 0-5: 2 (Herbicidal rate of 20% or more and less than 40%)
[3]
  herbicidal effect rating, C: oval-leafed pondweed: 0 (Herbicidal rate of 5% or less (almost no effect))
[4]; [24]
  J: blackgrass, herbicidal effect: 0 (Herbicidal rate of 5% or less (almost no effect))
[5]; 320 g/ha applied herbicide
  Herbicidal effect on A: late watergrass (grade 0-5): 2 (Herbicidal rate of 20% or more and less than 40%)
[6]; [24]
  G: green foxtail, herbicidal effect: 0 (Herbicidal rate of 5% or less (almost no effect))
[7]; [24]
  L: windgrass, herbicidal effect: 0 (Herbicidal rate of 5% or less (almost no effect))
[8]
  herbicidal effect on D (Chinese sprangletop), rating 0-5: 3 (Herbicidal rate of 40% or more and less than 70%)
[9]; [24]
  H: barnyard grass, herbicidal effect: 0 (Herbicidal rate of 5% or less (almost no effect))
[10]
  herbicidal effect rating, A: late watergrass: 0 (Herbicidal rate of 5% or less (almost no effect))
[11]; [24]
  M: velvetleaf, herbicidal effect: 0 (Herbicidal rate of 5% or less (almost no effect))
[12]; 320 g/ha applied herbicide
  Herbicidal effect on B: Japanese bulrush (grade 0-5): 0 (Herbicidal rate of 5% or less (almost no effect))
[13]; 320 g/ha applied herbicide
  Herbicidal effect on C: oval-leafed pondweed (grade 0-5): 0 (Herbicidal rate of 5% or less (almost no effect))
[14]; [24]
  F: southern crabgrass, herbicidal effect: 0 (Herbicidal rate of 5% or less (almost no effect))
[15]; [24]
  O: lambsquarters, herbicidal effect: 4 (Herbicidal rate of 70% or more and less than 90%)
[16]; [24]
  K: Italian ryegrass, herbicidal effect: 0 (Herbicidal rate of 5% or less (almost no effect))
[17]; [24]
  I: wild oat, herbicidal effect: 0 (Herbicidal rate of 5% or less (almost no effect))
[18]; [24]
  N: redroot pigweed, herbicidal effect: 3 (Herbicidal rate of 40% or more and less than 70%)
[19]; [24]
  R: persian speedwell, herbicidal effect: 4 (Herbicidal rate of 70% or more and less than 90%)
[20]
  herbicidal effect rating, B: Japanese bulrush: 2 (Herbicidal rate of 20% or more and less than 40%)
[21]; [24]
  P: chickweed, herbicidal effect: 0 (Herbicidal rate of 5% or less (almost no effect))
